Targets include CDK5 (Homo sapiens, UniProt Q00535); ABL2 (Homo sapiens, UniProt P42684); VRK2 (Homo sapiens, UniProt Q86Y07); MELK (Homo sapiens, UniProt Q14680); EPHA8 (Homo sapiens, UniProt P29322); AURKA (Homo sapiens, UniProt O14965); FYN (Homo sapiens, UniProt P06241); RIPK1 (Homo sapiens, UniProt Q13546); AXL (Homo sapiens, UniProt P30530); MAP3K15 (Homo sapiens, UniProt Q6ZN16); IGF1R (Homo sapiens, UniProt P08069); RIOK1 (Homo sapiens, UniProt Q9BRS2); PIK3C2B (Homo sapiens, UniProt O00750); PIK3CB (Homo sapiens, UniProt P42338); SBK1 (Homo sapiens, UniProt Q52WX2); RAF1 (Homo sapiens, UniProt P04049); PAK2 (Homo sapiens, UniProt Q13177); IRAK4 (Homo sapiens, UniProt Q9NWZ3); ALK (Homo sapiens, UniProt Q9UM73).

Common to all, as to assay: biochemical
Set-up in all cases: KINOMEscan competition binding, DNA-tagged kinase against immobilised ligand, qPCR read-out
Details in all cases: read-out: Percent Control
In general terms: Real-time PCR tracks product formation cycle by cycle.

The target in assay [1] is T1, RSK3(Kin.Dom.2-C-terminal) (Homo sapiens, UniProt Q15349).
T1 construct: gene RPS6KA2; Kin.Dom.2 C-terminal

1 compound from article PMC10507085, “Pharmacological inhibition of TBK1/IKKε blunts immunopathology in a murine model of SARS-CoV-2 infection” (Nature Communications, 2023) can be followed below.

CDK5, sequence (Q00535 whole entry): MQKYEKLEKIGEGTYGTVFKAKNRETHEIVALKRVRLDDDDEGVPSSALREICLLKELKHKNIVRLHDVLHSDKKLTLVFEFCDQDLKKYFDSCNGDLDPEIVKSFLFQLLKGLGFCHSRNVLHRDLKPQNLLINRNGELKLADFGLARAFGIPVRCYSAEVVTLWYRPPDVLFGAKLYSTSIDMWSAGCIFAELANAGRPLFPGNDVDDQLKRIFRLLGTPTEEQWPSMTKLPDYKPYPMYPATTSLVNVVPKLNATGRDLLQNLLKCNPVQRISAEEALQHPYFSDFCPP
RAF1, sequence (P04049 whole entry): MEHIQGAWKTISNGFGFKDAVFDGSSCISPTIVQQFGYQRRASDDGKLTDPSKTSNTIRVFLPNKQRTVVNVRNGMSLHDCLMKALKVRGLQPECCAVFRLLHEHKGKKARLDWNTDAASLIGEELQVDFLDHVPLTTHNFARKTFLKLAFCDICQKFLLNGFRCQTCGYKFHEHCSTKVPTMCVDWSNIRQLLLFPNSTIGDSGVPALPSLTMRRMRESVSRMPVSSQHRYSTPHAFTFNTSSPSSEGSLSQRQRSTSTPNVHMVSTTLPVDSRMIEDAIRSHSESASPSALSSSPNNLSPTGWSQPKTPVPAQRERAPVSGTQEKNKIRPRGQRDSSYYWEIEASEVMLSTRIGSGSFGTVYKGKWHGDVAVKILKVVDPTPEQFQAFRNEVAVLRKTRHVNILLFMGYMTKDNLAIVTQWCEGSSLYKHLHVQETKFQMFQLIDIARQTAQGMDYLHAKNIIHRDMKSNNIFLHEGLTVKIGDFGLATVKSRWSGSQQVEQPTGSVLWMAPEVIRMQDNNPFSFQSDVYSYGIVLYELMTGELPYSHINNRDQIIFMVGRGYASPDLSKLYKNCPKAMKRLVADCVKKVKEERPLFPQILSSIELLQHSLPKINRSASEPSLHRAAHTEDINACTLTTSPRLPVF
RIOK1, sequence (Q9BRS2 whole entry): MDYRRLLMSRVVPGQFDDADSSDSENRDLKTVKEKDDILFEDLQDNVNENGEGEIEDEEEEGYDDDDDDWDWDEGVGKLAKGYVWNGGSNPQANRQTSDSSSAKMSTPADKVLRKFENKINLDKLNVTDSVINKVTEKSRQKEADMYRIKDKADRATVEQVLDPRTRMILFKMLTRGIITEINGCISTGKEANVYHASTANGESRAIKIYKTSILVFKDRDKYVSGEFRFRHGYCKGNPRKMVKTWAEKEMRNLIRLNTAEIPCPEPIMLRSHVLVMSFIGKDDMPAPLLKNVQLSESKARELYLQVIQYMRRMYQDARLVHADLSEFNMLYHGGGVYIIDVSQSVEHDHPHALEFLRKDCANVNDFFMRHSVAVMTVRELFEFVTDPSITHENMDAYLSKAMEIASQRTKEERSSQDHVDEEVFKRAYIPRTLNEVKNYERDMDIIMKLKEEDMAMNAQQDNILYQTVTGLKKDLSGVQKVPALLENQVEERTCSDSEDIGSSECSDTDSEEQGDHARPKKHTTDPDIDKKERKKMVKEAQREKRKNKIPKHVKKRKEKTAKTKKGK
IGF1R, sequence (P08069 whole entry): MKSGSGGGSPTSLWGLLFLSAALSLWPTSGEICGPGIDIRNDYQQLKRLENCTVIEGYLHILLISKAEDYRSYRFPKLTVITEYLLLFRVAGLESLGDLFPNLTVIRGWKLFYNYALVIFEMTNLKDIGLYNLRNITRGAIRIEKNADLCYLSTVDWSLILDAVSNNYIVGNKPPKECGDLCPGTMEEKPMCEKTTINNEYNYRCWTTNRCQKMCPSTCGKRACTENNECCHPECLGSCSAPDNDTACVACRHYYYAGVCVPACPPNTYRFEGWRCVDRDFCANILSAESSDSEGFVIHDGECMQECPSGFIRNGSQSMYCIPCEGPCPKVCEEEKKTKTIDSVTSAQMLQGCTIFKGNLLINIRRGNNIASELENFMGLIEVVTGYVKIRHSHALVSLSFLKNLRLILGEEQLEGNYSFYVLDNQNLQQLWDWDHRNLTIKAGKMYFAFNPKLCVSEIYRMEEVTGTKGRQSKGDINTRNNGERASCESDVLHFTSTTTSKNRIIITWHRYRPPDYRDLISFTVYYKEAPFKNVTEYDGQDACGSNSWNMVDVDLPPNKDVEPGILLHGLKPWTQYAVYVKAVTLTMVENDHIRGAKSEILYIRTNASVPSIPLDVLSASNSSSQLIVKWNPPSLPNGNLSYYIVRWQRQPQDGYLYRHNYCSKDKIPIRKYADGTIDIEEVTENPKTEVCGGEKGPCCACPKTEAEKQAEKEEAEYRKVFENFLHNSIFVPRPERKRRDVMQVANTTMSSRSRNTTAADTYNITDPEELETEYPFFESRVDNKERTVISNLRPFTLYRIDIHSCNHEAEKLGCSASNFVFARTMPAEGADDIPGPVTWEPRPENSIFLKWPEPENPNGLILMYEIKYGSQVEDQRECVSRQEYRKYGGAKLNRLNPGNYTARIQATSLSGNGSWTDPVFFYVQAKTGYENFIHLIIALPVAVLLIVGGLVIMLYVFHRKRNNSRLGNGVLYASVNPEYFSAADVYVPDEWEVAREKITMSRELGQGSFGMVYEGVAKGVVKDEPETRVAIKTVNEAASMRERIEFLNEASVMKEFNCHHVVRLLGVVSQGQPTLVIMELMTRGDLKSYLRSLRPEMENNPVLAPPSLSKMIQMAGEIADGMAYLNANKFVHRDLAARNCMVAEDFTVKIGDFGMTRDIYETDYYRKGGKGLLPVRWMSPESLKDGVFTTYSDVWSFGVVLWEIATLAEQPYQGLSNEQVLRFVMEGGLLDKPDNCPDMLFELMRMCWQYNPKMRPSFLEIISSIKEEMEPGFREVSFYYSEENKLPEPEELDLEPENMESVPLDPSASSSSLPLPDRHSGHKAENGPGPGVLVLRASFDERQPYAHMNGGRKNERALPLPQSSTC
RIPK1, sequence (Q13546 whole entry): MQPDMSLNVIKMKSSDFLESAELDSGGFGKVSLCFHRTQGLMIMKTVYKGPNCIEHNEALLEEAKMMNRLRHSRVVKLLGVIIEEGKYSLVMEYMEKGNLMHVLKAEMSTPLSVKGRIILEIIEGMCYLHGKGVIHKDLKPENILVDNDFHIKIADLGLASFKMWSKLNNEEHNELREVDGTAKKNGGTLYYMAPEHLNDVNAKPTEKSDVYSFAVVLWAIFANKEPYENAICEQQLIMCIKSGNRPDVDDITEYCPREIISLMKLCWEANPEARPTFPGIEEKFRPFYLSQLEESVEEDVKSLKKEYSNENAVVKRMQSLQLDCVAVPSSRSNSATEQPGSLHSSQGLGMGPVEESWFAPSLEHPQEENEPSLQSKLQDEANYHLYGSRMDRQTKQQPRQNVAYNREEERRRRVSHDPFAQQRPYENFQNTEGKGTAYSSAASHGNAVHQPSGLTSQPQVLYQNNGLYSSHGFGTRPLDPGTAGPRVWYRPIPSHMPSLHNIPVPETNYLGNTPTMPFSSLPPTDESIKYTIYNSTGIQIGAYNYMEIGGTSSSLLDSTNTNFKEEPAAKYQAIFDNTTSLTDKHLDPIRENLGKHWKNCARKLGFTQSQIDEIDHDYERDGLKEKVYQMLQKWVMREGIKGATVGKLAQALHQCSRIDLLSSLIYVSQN
SBK1, sequence (Q52WX2 whole entry): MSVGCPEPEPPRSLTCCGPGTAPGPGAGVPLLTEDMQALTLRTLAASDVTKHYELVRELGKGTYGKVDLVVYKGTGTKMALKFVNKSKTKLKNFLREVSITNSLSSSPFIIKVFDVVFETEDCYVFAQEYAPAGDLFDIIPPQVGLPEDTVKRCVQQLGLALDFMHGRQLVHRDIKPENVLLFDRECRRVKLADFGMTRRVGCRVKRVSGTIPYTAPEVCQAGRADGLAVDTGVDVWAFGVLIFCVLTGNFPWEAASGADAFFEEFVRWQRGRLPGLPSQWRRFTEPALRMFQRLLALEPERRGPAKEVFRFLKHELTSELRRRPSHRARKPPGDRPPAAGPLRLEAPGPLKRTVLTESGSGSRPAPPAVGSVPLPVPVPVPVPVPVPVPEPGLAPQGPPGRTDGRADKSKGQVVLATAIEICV
PAK2, sequence (Q13177 whole entry): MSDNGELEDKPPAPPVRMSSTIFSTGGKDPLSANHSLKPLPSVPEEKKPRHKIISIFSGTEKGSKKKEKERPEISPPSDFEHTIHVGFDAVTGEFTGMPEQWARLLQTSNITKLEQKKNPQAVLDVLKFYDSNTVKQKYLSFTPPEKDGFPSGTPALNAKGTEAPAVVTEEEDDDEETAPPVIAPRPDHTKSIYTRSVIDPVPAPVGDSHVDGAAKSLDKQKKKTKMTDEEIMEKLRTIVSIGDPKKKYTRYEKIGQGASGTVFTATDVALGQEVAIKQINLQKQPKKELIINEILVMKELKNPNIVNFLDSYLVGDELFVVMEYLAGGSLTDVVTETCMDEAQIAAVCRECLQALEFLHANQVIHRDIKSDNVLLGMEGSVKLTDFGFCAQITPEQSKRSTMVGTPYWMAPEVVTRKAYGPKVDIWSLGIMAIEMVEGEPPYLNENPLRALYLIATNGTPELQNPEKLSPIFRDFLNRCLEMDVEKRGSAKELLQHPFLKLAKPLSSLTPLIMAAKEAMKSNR
IRAK4, sequence (Q9NWZ3 whole entry): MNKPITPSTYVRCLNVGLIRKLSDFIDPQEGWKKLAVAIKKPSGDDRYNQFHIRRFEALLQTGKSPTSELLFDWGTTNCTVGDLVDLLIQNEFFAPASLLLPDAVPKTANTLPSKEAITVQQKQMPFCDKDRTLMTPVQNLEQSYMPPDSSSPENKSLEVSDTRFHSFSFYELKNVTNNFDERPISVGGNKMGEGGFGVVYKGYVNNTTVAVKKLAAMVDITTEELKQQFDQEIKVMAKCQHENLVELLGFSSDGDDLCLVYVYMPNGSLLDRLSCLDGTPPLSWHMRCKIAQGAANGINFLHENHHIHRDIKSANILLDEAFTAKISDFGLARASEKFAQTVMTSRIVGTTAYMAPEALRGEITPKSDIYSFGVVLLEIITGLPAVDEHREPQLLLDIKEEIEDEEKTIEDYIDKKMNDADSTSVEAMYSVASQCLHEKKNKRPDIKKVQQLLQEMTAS

On to `Oc1ccc(C2=Cc3ccc(O)cc3OC2)cc1` [compound 1, idronoxil], for which the remaining binding at 10 µM turned out to be 100% at CDK5; 79% at ABL2; 67% on VRK2; 64% on MELK; 89% at EPHA8; 92% at AURKA. Further, the remaining binding at 10 µM on FYN was found to be 89%; at RIPK1, 78%; at AXL, 95%; at MAP3K15, 100%; on IGF1R it was 84%; on RIOK1 it was 98%. In addition, the remaining binding at 10 µM at PIK3C2B stood at 83%; in assay [1] it was 75%; on PIK3CB it was 98%; at SBK1 it was 91%; at RAF1, 69%; on PAK2 it was 49%. For the same compound, the remaining binding at 10 µM at IRAK4 was 79%; on ALK it was 68%.
